Counter-ions that a name gives are not always drawn. Like-named read-outs stand apart in the source and are kept apart here.

Assay type in all cases: cell-based
Series [1] in a line: Cytotoxicity using T cells.
Series [2] relates to HIV. In words: Antiviral activity using T cells. Conditions: Human immunodeficiency virus 1, T-cell. On the procedure:
(§1) HIV-1 infection assays with cell lines.
(§2) Laboratory strains of HIV-1, HIV-2, simian immunodeficiency virus, strains with know resistance to indicated drugs, or a low-passage (clinically derived) isolates are used to infect established cell lines by using a specific multiplicity of infection (MOI) of the virus for 1 hour at 37° C. prior to washing the cells and resuspension in medium containing increasing concentrations of drug (or test compound). At 4 to 6 days post-infection, drug-treated and control wells are analyzed for an HIV-1 induced cytopathic effect and/or for the presence of viral reverse transcriptase (RT) or viral p24 antigen in the culture medium (Buckheit and Swanstrom 1991; Ojwang et al. 1994, 1995a, Rando et al. 1995).

Series [3] is described as follows: Cytotoxicity (table Antiviral Activity & Cytotoxicity). The conditions noted are these: established cell lines.
Series [4] relates to HIV-1. In words: Antiviral activity (HIV-1 infection assays with cell lines). The conditions noted are these: Human immunodeficiency virus 1. How it is done:
as §1, §2

Series [5] relates to HIV. In words: HIV infection assay in cell lines (MT-2, MT-4, Jurkat). How it is done:
as §1, §2

Series [6] can be described thus: Cytotoxicity in MT-2 cells. The conditions noted are these: human.
The nature of series [7]: Cytotoxicity in PBMCs. Conditions: human. How it is done:
(§3) Peripheral blood mononuclear cells (PBMCs), Core blood mononuclear cells (CBMCs) and peripheral blood lymphocytes (PBLs) are isolated from the blood of HIV-1 negative and hepatitis B virus-negative (healthy) donors by using the Ficoll-Hypaque density gradient centrifugation technique and are then cultured as described by Gartner and Popovic (1990).

Series [8] deals with HIV. As to the kind of experiment: HIV infection of PBMCs. The conditions noted are these: Human immunodeficiency virus 1, PBMC, read-out: HIV IC50 (uM) PBMCs. On the procedure:
HIV-1 infection of PBMCs, CBMCs, and PBL.
as §3
PBMCs or CBMCs (2×10^5 cells/well) were infected with various isolates of HIV-1 at an MOI of 0.01. After 2 hours at 37C the cells are washed and treated with various concentrations of drug or test compound (Buckheit and Swanstrom 1991; Ojwang et al. 1995a). Seven days post-infection, HIV-1 replication was analyzed by the measuring the levels of RT or p24 in the culture medium.

Setting [9] is: antiviral activity, read-out: IC50.
The mark [10] stands for this setting: Human immunodeficiency virus 1, MT2, read-out: HIV IC50 (uM) MT-2.
The mark [11] stands for this setting: peripheral blood mononuclear cells (PBMCs), read-out: CC50 (uM) PBMCs.

With `O=c1n(C2CO[C@H](CO)O2)ccc2nc(-c3ccc(F)cc3)cn12` (stereo in doubt) [Compound 43, 2-(4-FLUOROPHENYL)-6-[(2S,4S)-2- HYDROXYMETHYL-1,3-DIOXOLAN-4-YL]- 5,6-DIHYDRO[1,3]DIAZOLO[1,2- C][1,3]DIAZIN-5-ONE], in series [1], the CC50 (as a rule, the concentration that lowers cell viability or growth by half) was above 100 µM. In addition, the IC50 – broadly, the concentration that inhibits the measured activity by half – in series [2] worked out at 0.31 µM.
Consider `O=c1n([C@H]2CO[C@@H](CO)O2)cc(F)c2nc(-c3ccc(F)cc3)cn12` (stereo in doubt) [Compound 48], for which the CC50 in series [1] and in series [3] was above 100 µM in each case. Moreover, the IC50 in series [2] and in series [4] (setting [9]) was 0.026 µM throughout.
For `O=c1n([C@@H]2CC[C@H](CO)O2)ccc2nc(-c3ccc([N+](=O)[O-])cc3)cn12` [Compound 31, 6-[(2S,5R)-5-HYDROXYMETHYL OXOLAN-2-YL]-2-(4-NITROPHENYL)-5,6- DIHYDRO[1,3]-DIAZOLO[1,2-C][1,3]DIAZIN-5-ONE], in series [1], the 50% cytotoxic concentration (CC50) was determined as 45 µM. In series [2], this compound gave an IC50 of 9.7 µM.
In the case of `O=c1n([C@H]2CC[C@@H](CO)O2)ccc2nc(-c3ccc([N+](=O)[O-])cc3)cn12` [Compound 32, 2-(4- NITROPHENYL)-6-[(2R,5S)-5- HYDROXYMETHYLOXOLAN-2-YL]-5,6- DIHYDRO[1,3]-DIAZOLO[1,2-C][1,3]DIAZIN-5-ONE], in series [1], the CC50 is above 100 µM. The same compound yielded an IC50 in series [2] of 7 µM.
For `O=c1n([C@@H]2CC[C@H](CO)O2)cc(F)c2nc(-c3ccc(F)cc3)cn12` [Compound 33, 8-FLUORO-2-(4-FLUOROPHENYL)-6- [(5R,2S)-5-HYDROXYMETHYL OXOLAN- 2-YL]-5,6-DIHYDRO[1,3]DIAZOLO[1,2- C][1,3]DIAZIN-5-ONE], in series [1], the midpoint of cytotoxicity, the CC50, lay at 90 µM. The same compound returned an IC50 in series [2] of 4 µM.
Consider `O=c1n([C@H]2CC[C@@H](CO)O2)cc(F)c2nc(-c3ccc([N+](=O)[O-])cc3)cn12` [Compound 36, 8-FLUORO-2-(4-NITROPHENYL)-6- [(2R,5S)-5-HYDROXYMETHYL OXOLAN- 2-YL]-5,6-DIHYDRO[1,3]-DIAZOLO[1,2- C][1,3]DIAZIN-5-ONE], for which the CC50 in series [1] is above 100 µM. The compound also displayed a 50% inhibitory concentration (IC50) in series [2] of 1 µM.
As to `O=c1n([C@H]2CO[C@@H](CO)O2)ccc2nc(-c3ccc(F)cc3)cn12` [Compound 44, 2-(4-FLUOROPHENYL)-6-[(2R,4R)-2- HYDROXYMETHYL-1,3-DIOXOLAN-4-YL]- 5,6-DIHYDRO[1,3]DIAZOLO[1,2- C][1,3]DIAZIN-5-ONE], the CC50 in series [1] and in series [3] was above 100 µM in each case. For the same compound, the IC50 in series [2] stood at 0.0032 µM; in series [4] (setting [9]), 0.003 µM.
`O=c1n([C@@H]2CO[C@H](CO)O2)ccc2nc(-c3ccc([N+](=O)[O-])cc3)cn12` [Compound 45, L2-(4-NITROPHENYL)-6-[(2S,4S)-2- HYDROXYMETHYL-1,3-DIOXOLAN-4-YL]- 5,6-DIHYDRO[1,3]DIAZOLO[1,2- C][1,3]DIAZIN-5-ONE]: the CC50 is 10 µM in series [1] and 2 µM in series [6]. The IC50 in series [5] (setting [10]) amounted to 3 µM; in series [2] it was 0.25 µM.
Take `O=c1n([C@H]2CO[C@@H](CO)O2)ccc2nc(-c3ccc([N+](=O)[O-])cc3)cn12` [Compound 46, 2-(4-NITROPHENYL)-6-[(2R,4R)-2- HYDROXYMETHYL-1,3-DIOXOLAN-4-YL]- 5,6-DIHYDRO[1,3]DIAZOLO[1,2- C][1,3]DIAZIN-5-ONE]: the CC50 in series [1] and in series [3] was above 100 µM each time. For the same compound, the IC50 in series [2] and in series [4] (setting [9]) was 0.1 µM each time.
As for `O=c1n([C@@H]2CO[C@H](CO)O2)cc(F)c2nc(-c3ccc([N+](=O)[O-])cc3)cn12` [Compound 49], the IC50 in series [5] (Human immunodeficiency virus 1, Jurkat, read-out: HIV IC50 (uM) Jurkat) came to 0.24 µM; in series [5] (setting [10]), 0.13 µM; in series [5] (Human immunodeficiency virus 1, MT4, read-out: HIV IC50 (uM) (MT-4)) it was 0.015 µM; in series [4], 0.005 µM. The CC50 in series [6] is 6.5 µM; in series [7] (setting [11]), below 10 µM.
On to `O=c1n([C@H]2CO[C@@H](CO)O2)cc(F)c2nc(-c3ccc([N+](=O)[O-])cc3)cn12` [Compound 50], for which the CC50 in series [1] is above 100 µM; in series [6], above 10 µM; in series [3] it was above 100 µM. In addition, the IC50 is 2.8 µM in series [5] (setting [10]), 0.44 µM in series [2] and 0.44 µM in series [4] (setting [9]).
In series [1], `O=c1n([C@H]2CO[C@H](CO)O2)ccc2nc(-c3ccc([N+](=O)[O-])cc3)cn12` [Compound 53] showed a CC50 above 10 µM. This compound also had an IC50 in series [2] of 0.4 µM.
The like results for `O=c1n([C@H]2CO[C@H](CO)O2)cc(F)c2nc(-c3ccc(F)cc3)cn12` [Compound 55] were, in that order, above 100 µM and 48 µM.
Consider `O=c1n([C@@H]2CO[C@@H](CO)O2)cc(F)c2nc(-c3ccc([N+](=O)[O-])cc3)cn12` [Compound 58], for which the CC50 in series [1] and in series [3] was above 100 µM in each case. For the same compound, the IC50 in series [2] and in series [4] was 60 µM throughout.
As for `CC(C)[C@H](N)C(=O)OCC1OC[C@H](n2ccc3nc(-c4ccc(F)cc4)cn3c2=O)O1` (some centres unmarked) [Compound 60, 2-AMINO-3-METHYL-BUTYRIC ACID 4-[2- (4-FLUORO-PHENYL)-5-OXO-IMIDAZO [1,2-C]PYRIMIDIN-6-YL]-[1,3]DIOXOLAN-2- YLMETHYL ESTER; HYDROCHLORIDE SALT], the IC50 in series [8] is 0.6 µM. Moreover, the CC50 in series [7] was above 10 µM.
Regarding `O=c1n([C@H]2CO[C@@H](CO)O2)ccc2nc(-c3ccccc3)cn12` [Compound 62, 6-(2-HYDROXYMETHYL-[1,3]DIOXOLAN- 4-YL)-2-PHENYL-6H-IMIDAZO[1,2-C]PYRIMIDIN-5-ONE], the IC50 in series [8] (PBMCs) came out at 8 µM. Besides, the CC50 in series [7] (setting [11]) was above 10 µM.

Values taken from US20020061896A1, “Imidazopyrimidine nucleoside analogues with anti-HIV activity” (priority 1999, published 2002).
